In patent publication US7138361B2, “Herbicidal heterocycles” (E. I. du Pont de Nemours and Company, priority 2000, dated 2006):

Columns and labels:
Format in all cases: in vivo
[1] = tested on: Surinam grass (Brachiaria decumbens); assay: Test B postemergence; conditions: 13 to 15 days
Summary of the method: (§1)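 Pre: seeded pots sprayed, chemical in non-phytotoxic solvent/surfactant mix. Post: plants 2–18 cm, 1–4 leaf, same formulation. Greenhouse 13–15 d; visual % control vs untreated, 0–100 scale.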

[2] = tested on: barnyardgrass (Echinochloa crus-galli); assay: Test B postemergence; conditions: 13 to 15 days
Summary of the method: as §1

[3] = tested on: blackgrass (Alopecurus myosuroides); assay: Test B postemergence; conditions: 13 to 15 days
Summary of the method: as §1

[4] = tested on: cocklebur (Xanthium strumarium); assay: Test B postemergence; conditions: 13 to 15 days
Summary of the method: as §1

corn (Zea mays) [5] = assay: Test B postemergence; conditions: 13 to 15 days
Summary of the method: as §1

[6] = tested on: crabgrass (Digitaria sanguinalis); assay: Test B postemergence; conditions: 13 to 15 days
Summary of the method: as §1

[7] = tested on: giant foxtail (Setaria faberii); assay: Test B postemergence; conditions: 13 to 15 days
Summary of the method: as §1

[8] = tested on: lambsquarters (Chenopodium album); assay: Test B postemergence; conditions: 13 to 15 days
Summary of the method: as §1

[9] = tested on: morning glory (Ipomoea hederacea); assay: Test B postemergence; conditions: 13 to 15 days
Summary of the method: as §1

[10] = tested on: pigweed (Amaranthus retroflexus); assay: Test B postemergence; conditions: 13 to 15 days
Summary of the method: as §1

[11] = tested on: velvetleaf (Abutilon theophrasti); assay: Test B postemergence; conditions: 13 to 15 days
Summary of the method: as §1

[12] = tested on: wheat (Triticum aestivum); assay: Test B postemergence; conditions: 13 to 15 days
Summary of the method: as §1

wild oat (Avena fatua) = assay: Test B postemergence; conditions: 13 to 15 days
Summary of the method: as §1

[13] = tested on: Surinam grass (Brachiaria decumbens); assay: Test B preemergence
Summary of the method: as §1

[14] = tested on: barnyardgrass (Echinochloa crus-galli); assay: Test B preemergence
Summary of the method: as §1

[15] = tested on: cocklebur (Xanthium strumarium); assay: Test B preemergence
Summary of the method: as §1

corn (Zea mays) [16] = assay: Test B preemergence
Summary of the method: as §1

[17] = tested on: crabgrass (Digitaria sanguinalis); assay: Test B preemergence
Summary of the method: as §1

[18] = tested on: giant foxtail (Setaria faberii); assay: Test B preemergence
Summary of the method: as §1

[19] = tested on: lambsquarters (Chenopodium album); assay: Test B preemergence
Summary of the method: as §1

[20] = tested on: morning glory (Ipomoea hederacea); assay: Test B preemergence
Summary of the method: as §1

[21] = tested on: pigweed (Amaranthus retroflexus); assay: Test B preemergence
Summary of the method: as §1

rice (Oryza saliva) [22] = assay: Test B preemergence
Summary of the method: as §1

[23] = tested on: velvetleaf (Abutilon theophrasti); assay: Test B preemergence
Summary of the method: as §1

[24] = tested on: barnyardgrass (Echinochloa crus-galli); assay: Test B flooded paddy test; conditions: Rate 1000 g/ha, scale of 0 to 100 where 0 is no effect and 100 is complete control, visually evaluated after 13 to 15 days
Summary of the method: (§2)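 2-leaf plants, flooded paddy; greenhouse 13–15 d post-treatment; visual rating vs controls, 0–100 scale (0 = no effect, 100 = complete control); dash = no result.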

[25] = tested on: duck salad (Heteranthera limosa); assay: Test B flooded paddy test; conditions: Rate 1000 g/ha, scale of 0 to 100 where 0 is no effect and 100 is complete control, visually evaluated after 13 to 15 days
Summary of the method: as §2

rice (Oryza saliva) [26] = assay: Test B flooded paddy test; conditions: Rate 1000 g/ha, scale of 0 to 100 where 0 is no effect and 100 is complete control, visually evaluated after 13 to 15 days
Summary of the method: as §2

[27] = tested on: smallflower flatsedge (Cyperus difformis); assay: Test B flooded paddy test; conditions: Rate 1000 g/ha, scale of 0 to 100 where 0 is no effect and 100 is complete control, visually evaluated after 13 to 15 days
Summary of the method: as §2

[28] = Rate 125 g/ha, scale 0 (no effect) to 100 (complete control)
[29] = Rate 500 g/ha, scale 0 to 100, 0 is no effect, 100 is complete control
[30] = Preemergence, Rate 500 g/ha, scale 0 to 100, 0 no effect, 100 complete control
[31] = preemergence, Rate 125 g/ha, scale of 0 to 100 where 0 is no effect and 100 is complete control, 13 to 15 days

Cc1ccc(N2CCC(n3ccc(C(C)(C)C)n3)C2=O)cc1C(F)(F)F (stereo not shown) [Compound 47]
Plant response rating, Surinam grass [1, 28]: 0 | Plant response rating, Surinam grass [1, 29]: 0 | Plant response rating, Barnyardgrass [2, 28]: 0 | Plant response rating, Barnyardgrass [2, 29]: 0 | Plant response rating, Blackgrass [3, 28]: 0 | Plant response rating, Blackgrass [3, 29]: 0 | Plant response rating, Cocklebur [4, 28]: 0 | Plant response rating, Cocklebur [4, 29]: 0 | Plant response rating, Corn (corn (Zea mays) [5]; [28]): 0 | Plant response rating, Corn (corn (Zea mays) [5]; [29]): 0 | Plant response rating, Crabgrass [6, 28]: 0 | Plant response rating, Crabgrass [6, 29]: 0 | Plant response rating, Foxtail, Giant [7, 28]: 0 | Plant response rating, Foxtail, Giant [7, 29]: 0 | Plant response rating, Lambsquarters [8, 28]: 70 | Plant response rating, Lambsquarters [8, 29]: 90 | Plant response rating, Morningglory [9, 28]: 0 | Plant response rating, Morningglory [9, 29]: 0 | Plant response rating, Pigweed [10, 28]: 50 | Plant response rating, Pigweed [10, 29]: 50 | Plant response rating, Velvetleaf [11, 28]: 0 | Plant response rating, Velvetleaf [11, 29]: 0 | Plant response rating, Wheat [12, 28]: 0 | Plant response rating, Wheat [12, 29]: 0 | Plant response rating, Wild Oat (wild oat (Avena fatua); [28]): 0 | Plant response rating, Wild Oat (wild oat (Avena fatua); [29]): 0 | Plant response rating, Surinam grass [13, 30]: 0 | Plant response rating, Surinam grass [13, 31]: 0 | Plant response rating, Barnyardgrass [14, 30]: 0 | Plant response rating, Barnyardgrass [14, 31]: 0 | Plant response rating, Cocklebur [15, 30]: 0 | Plant response rating, Cocklebur [15, 31]: 0 | Plant response rating, Corn (corn (Zea mays) [16]; [30]): 0 | Plant response rating, Corn (corn (Zea mays) [16]; [31]): 0 | Plant response rating, Crabgrass [17, 30]: 0 | Plant response rating, Crabgrass [17, 31]: 0 | Plant response rating, Foxtail, Giant [18, 30]: 0 | Plant response rating, Foxtail, Giant [18, 31]: 0 | Plant response rating, Lambsquarters [19, 30]: 100 | Plant response rating, Lambsquarters [19, 31]: 0 | Plant response rating, Morningglory [20, 30]: 0 | Plant response rating, Morningglory [20, 31]: 0 | Plant response rating, Pigweed [21, 30]: 100 | Plant response rating, Pigweed [21, 31]: 100 | Plant response rating, Rice (rice (Oryza saliva) [22]; [30]): 20 | Plant response rating, Rice (rice (Oryza saliva) [22]; [31]): 0 | Plant response rating, Velvetleaf [23, 30]: 0 | Plant response rating, Velvetleaf [23, 31]: 0 | Plant response rating, Barnyardgrass [24]: 70 | Plant response rating, Ducksalad [25]: 20 | Plant response rating, Rice (rice (Oryza saliva) [26]): 70 | Plant response rating, Flatsedge [27]: 100
